Measurements from publication PMC5794978, “Molecular identification, transcript expression, and functional deorphanization of the adipokinetic hormone/corazonin-related peptide receptor in the disease vector, Aedes aegypti” (Scientific Reports, 2018).
“Also recorded” adds a separate entry of the source. Non-standard residues stand in square brackets, D forms with d. Residues, ends and D or L forms follow the SMILES beside them. No end group written: not given here. pGlu = O=C1CC[C@@H](C(=O)O)N1

Target: T1, AedaeACPR-I (Aedes aegypti, UniProt A0A2L0VBG2)
T1 construct: only the ACPR-I transcript yields a complete receptor protein which we functionally deorphanized; expressed in transfected cells; host or cells: CHO-K1 cells stably expressing aequorin, transient transfection with pcDNA3.1+
T1 sequence (A0A2L0VBG2 1-577): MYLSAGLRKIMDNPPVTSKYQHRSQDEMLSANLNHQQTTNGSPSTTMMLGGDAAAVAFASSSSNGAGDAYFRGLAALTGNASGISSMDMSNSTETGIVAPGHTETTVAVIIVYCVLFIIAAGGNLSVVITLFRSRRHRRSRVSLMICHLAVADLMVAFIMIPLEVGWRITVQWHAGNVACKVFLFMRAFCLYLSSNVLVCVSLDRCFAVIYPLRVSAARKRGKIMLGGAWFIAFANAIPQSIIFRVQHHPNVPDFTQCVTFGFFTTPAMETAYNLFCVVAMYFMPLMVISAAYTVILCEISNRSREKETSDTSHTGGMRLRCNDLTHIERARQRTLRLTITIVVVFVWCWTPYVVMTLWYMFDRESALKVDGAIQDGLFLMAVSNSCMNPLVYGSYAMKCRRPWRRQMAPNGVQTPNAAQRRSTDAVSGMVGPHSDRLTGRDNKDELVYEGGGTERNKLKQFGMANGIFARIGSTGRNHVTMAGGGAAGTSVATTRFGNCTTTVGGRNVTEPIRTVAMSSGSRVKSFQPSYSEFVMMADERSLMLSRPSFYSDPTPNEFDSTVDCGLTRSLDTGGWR
Experiment: Heterologous receptor functional assay (aequorin bioluminescence) in CHO-K1 cells transiently expressing AedaeACPR-I
Format: cell-based
Settings: for EC50: CHOK1-aeq cells transiently expressing AedaeACPR-I, peptide doses 10^-12 to 10^-5 M in quadruplicate, luminescence response, average of multiple independent biological replicates (four independent transfections); for Receptor activation (luminescence response): CHO-K1 aequorin cells transiently expressing AedaeACPR-I, doses 10^-12 to 10^-5 M
Experimental: Functional activation of AedaeACPR-I was assayed using a previously established cell culture system involving a recombinant Chinese hamster ovary (CHO)-K1 cell line stably expressing aequorin[35]. […] At 48 hours post-transfection, cells were detached from the culture flasks using Dulbecco’s phosphate buffered saline (DPBS; Wisent Corporation, St. Bruno, QC) containing 5 mM EDTA and resuspended in BSA medium (DMEM-F12 media containing 0.1% bovine serum albumin, 1X antimycotic-antibiotic) to a concentration of 10^6–10^7 cells/mL. Coelenterazine h (Promega, Madison, WI, USA) was added to the cells to a final concentration of 5 μM, and incubated for 3 hours in the dark at room temperature on a stirrer set at 200 rpm. The cell suspension was then diluted 10-fold and incubated at room temperature for an additional hour. Serial dilutions of peptide ligands (Table 1) were prepared in BSA medium (10^−5 to 10^−12 M), and loaded in quadruplicates into 96-well luminescence plates (Greiner Bio-One, Germany). All peptides were commercially synthesized (Genscript, Piscataway, NJ) at a purity >90% and were prepared in dimethyl sulfoxide at a stock concentration of 1 mM. Cells were loaded into each well with an automatic injector unit and luminescence was measured for 20 seconds using a Synergy 2 Multi-Mode Microplate Reader (BioTek, Winooski, VT, USA). BSA medium alone was utilized as a negative control and 5 × 10^−5 M ATP was used as a positive control, which acts on endogenously expressed purinoceptors[36],[37]. EC50 values were calculated in GraphPad Prism 7.02 (GraphPad Software, San Diego, USA) from dose-dependent curves from four independent transfections.
A heterologous receptor functional assay involving CHO-K1 cells was used to validate the cloned receptor as a bona fide ACP receptor. […] Our findings in this study are consistent with past reports, since similar binding specificity of ACP receptors has been observed previously in T. castaneum, A. gambiae, and R. prolixus with EC50 values reported in the low nanomolar range[17],[25]. Additionally, previous research in the aforementioned insects have also observed that the AKH receptors are not activated by ACP or corazonin peptides, and similarly, the corazonin receptors are not activated by ACP or AKH peptides[17],[25],[43],[44].
Figure 4 Functional heterologous receptor assay of CHO-K1 aequorin cells transiently expressing the AedaeACPR-I. (a) Dose dependent effect on the bioluminescence response (mean 0–15 s) after the addition of between 10^−12–10^−5 M doses of A. aegypti ACP, AKH and CRZ peptides. Luminescence is normalized to the BSA control and plotted relative to the maximal response (10^−5 M). […] (b) Kinetics of the bioluminescence response measured between 0–5 s, 6–10 s, and 11–20 s time intervals, following the addition of 1 × 10^−6 M of the above peptides normalized to vehicle control (BSA media). Luminescence is normalized to the BSA control and plotted relative to the maximal response (10^−5 M). Data represent the mean ± standard error (n = 4).

| Compound | EC50 [µM] | Receptor activation (luminescence response) | Receptor activation (luminescence response) (listed as AedaePK1) | Receptor activation (luminescence response) (listed as AedaeCAPA-1) |
| --- | --- | --- | --- | --- |
| CC(C)[C@H](NC(=O)[C@@H]1CCC(=O)N1)C(=O)N[C@H](C(=O)N[C@@H](Cc1ccccc1)C(=O)N[C@@H](CO)C(=O)N[C@@H](CCCNC(=N)N)C(=O)N[C@@H](CC(=O)O)C(=O)N[C@@H](Cc1c[nH]c2ccccc12)C(=O)N[C@@H](CC(N)=O)C(=O)N[C@@H](C)C(N)=O)[C@@H](C)O [AedaeACP] ([pGlu]VTFSRDWNA-NH2) | 0.0103 | – | – | – |
| CC(C)C[C@H](NC(=O)[C@@H]1CCC(=O)N1)C(=O)N[C@H](C(=O)N[C@@H](Cc1ccccc1)C(=O)N[C@H](C(=O)N1CCC[C@H]1C(=O)N[C@@H](CO)C(=O)N[C@@H](Cc1c[nH]c2ccccc12)C(N)=O)[C@@H](C)O)[C@@H](C)O [AedaeAKH] ([pGlu]LTFTPSW-NH2) | > 10 | no detectable luminescence indicative of receptor activation; also recorded: No receptor activation was detected | – | – |
| C[C@@H](O)[C@H](NC(=O)[C@H](CC(N)=O)NC(=O)[C@H](Cc1c[nH]c2ccccc12)NC(=O)CNC(=O)[C@H](CCCNC(=N)N)NC(=O)[C@H](CO)NC(=O)[C@H](Cc1ccc(O)cc1)NC(=O)[C@H](CCC(N)=O)NC(=O)[C@H](Cc1ccccc1)NC(=O)[C@@H](NC(=O)[C@@H]1CCC(=O)N1)[C@@H](C)O)C(=O)N[C@@H](CC(N)=O)C(N)=O [AedaeCRZ] ([pGlu]TFQYSRGWNTN-NH2) | – | no detectable luminescence indicative of receptor activation; also recorded: No receptor activation was detected | – | – |
| AGNSGANSGMWFGPRL-NH2 [AedaeCAPA-PK1] | > 10 | – | no detectable luminescence indicative of receptor activation; also recorded: No receptor activation was detected | – |
| GPTVGLFAFPRV-NH2 [AedaeCAPA1] | > 10 | No receptor activation was detected | – | no detectable luminescence indicative of receptor activation |
